Measured values: ChEMBL document CHEMBL4000250, “Synthesis of new derivatives of 21-imidazolyl-16-dehydropregnenolone as inhibitors of 5α-reductase 2 and with cytotoxic activity in cancer cells” (Bioorg Med Chem, 2017)
Active and inactive are the calls of the source. The rule behind the calls is not given here.

Test system: Syrian golden hamster
Experiment: Toxicity in castrated golden hamster at 2 mg/kg, sc co-administered with testosterone for 6 days
Assay type: organism-based, Mesocricetus auratus
Conditions: in vivo, 144 h

Row | Structure (SMILES) | Activity
1 | CCC(=O)O[C@H]1CC[C@@]2(C)C(=CC[C@@H]3[C@@H]2CC[C@]2(C)C(C(=O)Cn4ccnc4)=CC[C@@H]32)C1 | Non-Toxic

Biological target: T1, 3-oxo-5-alpha-steroid 4-dehydrogenase 1 (Rattus norvegicus, UniProt P24008)
T1 sequence (P24008 whole entry): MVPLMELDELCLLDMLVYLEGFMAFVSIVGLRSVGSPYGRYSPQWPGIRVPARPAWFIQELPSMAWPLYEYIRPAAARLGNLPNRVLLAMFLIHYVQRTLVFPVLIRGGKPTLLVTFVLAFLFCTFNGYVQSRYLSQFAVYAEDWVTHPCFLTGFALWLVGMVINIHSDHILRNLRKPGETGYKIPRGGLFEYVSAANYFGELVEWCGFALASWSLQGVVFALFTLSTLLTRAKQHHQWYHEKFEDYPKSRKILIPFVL
Experiment: Inhibition of rat liver microsomal 5-alpha reductase 1 assessed as decrease in conversion of testosterone to dihydrotestosterone by chromatographic method
Conditions: not given

Row | Structure (SMILES) | IC50
2 | CC(=O)O[C@H]1CC[C@@]2(C)C(=CC[C@@H]3[C@@H]2CC[C@]2(C)C(C(C)=O)=CC[C@@H]32)C1 | Not Active
3 | C[C@]12CC[C@H](O)CC1=CC[C@@H]1[C@@H]2CC[C@]2(C)C(C(=O)Cn3ccnc3)=CC[C@@H]12 | Not Active
4 | CCC(=O)O[C@H]1CC[C@@]2(C)C(=CC[C@@H]3[C@@H]2CC[C@]2(C)C(C(=O)Cn4ccnc4)=CC[C@@H]32)C1 | Not Active

Test system: Syrian golden hamster
Experiment: Hyperplasia activity in castrated golden hamster assessed as prostate weight at 2 mg/kg, sc co-administered with testosterone for 6 days (reference value: 98 +/- 12.6 mg)
Assay type: functional, Mesocricetus auratus
Conditions: not given

Row | Structure (SMILES) | Activity [mg]
5 | CCC(=O)O[C@H]1CC[C@@]2(C)C(=CC[C@@H]3[C@@H]2CC[C@]2(C)C(C(=O)Cn4ccnc4)=CC[C@@H]32)C1 | 88.4

Test system: SK-LU-1
Experiment: Cytotoxicity against human SKLU1 cells assessed as growth inhibition at 50 uM after 48 hrs by sulforhodamine B assay relative to control
Assay type: functional
Conditions: SK-LU-1, 48 h, read-out: GI

Row | Structure (SMILES) | inhibition of growth at 50 µM [%]
6 | CC(=O)O[C@H]1CC[C@@]2(C)C(=CC[C@@H]3[C@@H]2CC[C@]2(C)C(C(C)=O)=CC[C@@H]32)C1 | 12.8
7 | C[C@]12CC[C@H](O)CC1=CC[C@@H]1[C@@H]2CC[C@]2(C)C(C(=O)Cn3ccnc3)=CC[C@@H]12 | 74.8
8 | CCC(=O)O[C@H]1CC[C@@]2(C)C(=CC[C@@H]3[C@@H]2CC[C@]2(C)C(C(=O)Cn4ccnc4)=CC[C@@H]32)C1 | 16.8

Biological target: T2, 3-oxo-5-alpha-steroid 4-dehydrogenase 2 (Homo sapiens, UniProt P31213)
T2 sequence (P31213 whole entry): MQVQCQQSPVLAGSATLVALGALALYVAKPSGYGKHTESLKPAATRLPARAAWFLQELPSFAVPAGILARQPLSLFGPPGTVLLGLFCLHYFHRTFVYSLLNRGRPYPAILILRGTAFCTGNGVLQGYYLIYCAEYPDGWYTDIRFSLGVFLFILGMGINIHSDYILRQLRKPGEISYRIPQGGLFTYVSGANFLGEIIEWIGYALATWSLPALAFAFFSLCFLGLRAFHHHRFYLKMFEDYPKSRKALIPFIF
Experiment: Inhibition of human prostate 5-alpha reductase 2 assessed as decrease in conversion of testosterone to dihydrotestosterone by chromatographic method
Conditions: not given

Row | Structure (SMILES) | IC50
9 | CC(=O)O[C@H]1CC[C@@]2(C)C(=CC[C@@H]3[C@@H]2CC[C@]2(C)C(C(C)=O)=CC[C@@H]32)C1 | Not Active
10 | CCC(=O)O[C@H]1CC[C@@]2(C)C(=CC[C@@H]3[C@@H]2CC[C@]2(C)C(C(=O)Cn4ccnc4)=CC[C@@H]32)C1 | Not Active

Same assay, conditions: read-out: IC50

Row | Structure (SMILES) | IC50 [µM]
11 | C[C@]12CC[C@H](O)CC1=CC[C@@H]1[C@@H]2CC[C@]2(C)C(C(=O)Cn3ccnc3)=CC[C@@H]12 | 119

Test system: MCF7
Experiment: Cytotoxicity against human MCF7 cells assessed as growth inhibition at 50 uM after 48 hrs by sulforhodamine B assay relative to control
Assay type: functional
Conditions: MCF7, 48 h, read-out: GI

Row | Structure (SMILES) | inhibition of growth at 50 µM [%]
12 | CC(=O)O[C@H]1CC[C@@]2(C)C(=CC[C@@H]3[C@@H]2CC[C@]2(C)C(C(C)=O)=CC[C@@H]32)C1 | 25.5
13 | C[C@]12CC[C@H](O)CC1=CC[C@@H]1[C@@H]2CC[C@]2(C)C(C(=O)Cn3ccnc3)=CC[C@@H]12 | 89.4
14 | CCC(=O)O[C@H]1CC[C@@]2(C)C(=CC[C@@H]3[C@@H]2CC[C@]2(C)C(C(=O)Cn4ccnc4)=CC[C@@H]32)C1 | 0

Test system: PC-3
Experiment: Cytotoxicity against human PC3 cells assessed as growth inhibition at 50 uM after 48 hrs by sulforhodamine B assay relative to control
Assay type: functional
Conditions: PC-3, 48 h, read-out: GI

Row | Structure (SMILES) | inhibition of growth at 50 µM [%]
15 | CC(=O)O[C@H]1CC[C@@]2(C)C(=CC[C@@H]3[C@@H]2CC[C@]2(C)C(C(C)=O)=CC[C@@H]32)C1 | 21.4
16 | C[C@]12CC[C@H](O)CC1=CC[C@@H]1[C@@H]2CC[C@]2(C)C(C(=O)Cn3ccnc3)=CC[C@@H]12 | 96.2
17 | CCC(=O)O[C@H]1CC[C@@]2(C)C(=CC[C@@H]3[C@@H]2CC[C@]2(C)C(C(=O)Cn4ccnc4)=CC[C@@H]32)C1 | 22.6

Biological target: T3, Androgen receptor (Rattus norvegicus) (UniProt P15207)
T3 sequence (whole entry): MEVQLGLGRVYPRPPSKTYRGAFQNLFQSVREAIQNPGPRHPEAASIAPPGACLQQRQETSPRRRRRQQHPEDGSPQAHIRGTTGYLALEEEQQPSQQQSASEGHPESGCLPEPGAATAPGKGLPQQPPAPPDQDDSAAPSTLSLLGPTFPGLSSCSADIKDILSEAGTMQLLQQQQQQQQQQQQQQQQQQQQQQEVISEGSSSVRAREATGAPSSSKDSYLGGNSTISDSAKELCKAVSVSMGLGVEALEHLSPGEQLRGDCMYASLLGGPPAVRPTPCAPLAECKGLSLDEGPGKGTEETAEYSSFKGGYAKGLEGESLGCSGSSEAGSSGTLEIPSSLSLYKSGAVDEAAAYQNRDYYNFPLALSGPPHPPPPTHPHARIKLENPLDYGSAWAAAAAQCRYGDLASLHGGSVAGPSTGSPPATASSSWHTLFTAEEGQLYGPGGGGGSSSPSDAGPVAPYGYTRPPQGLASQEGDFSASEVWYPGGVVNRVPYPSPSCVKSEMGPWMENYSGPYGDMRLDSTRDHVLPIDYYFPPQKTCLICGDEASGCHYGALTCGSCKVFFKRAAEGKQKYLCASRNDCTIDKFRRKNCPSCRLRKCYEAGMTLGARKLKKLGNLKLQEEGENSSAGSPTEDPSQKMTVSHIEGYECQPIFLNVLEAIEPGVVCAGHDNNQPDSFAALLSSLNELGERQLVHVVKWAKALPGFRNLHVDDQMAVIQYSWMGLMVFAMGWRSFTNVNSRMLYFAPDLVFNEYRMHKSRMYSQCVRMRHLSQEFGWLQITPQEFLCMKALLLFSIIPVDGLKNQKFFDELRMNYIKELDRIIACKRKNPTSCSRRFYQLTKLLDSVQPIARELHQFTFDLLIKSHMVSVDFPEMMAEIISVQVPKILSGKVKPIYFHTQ
Experiment: (§1) Displacement of [3H]-MIB from rat prostate cytosolic androgen receptor by liquid scintillation counting method
Conditions: not given

Row | Structure (SMILES) | inhibition
18 | CC(=O)O[C@H]1CC[C@@]2(C)C(=CC[C@@H]3[C@@H]2CC[C@]2(C)C(C(C)=O)=CC[C@@H]32)C1 | inactive
19 | C[C@]12CC[C@H](O)CC1=CC[C@@H]1[C@@H]2CC[C@]2(C)C(C(=O)Cn3ccnc3)=CC[C@@H]12 | inactive
20 | CCC(=O)O[C@H]1CC[C@@]2(C)C(=CC[C@@H]3[C@@H]2CC[C@]2(C)C(C(=O)Cn4ccnc4)=CC[C@@H]32)C1 | inactive

Biological target: T4, Androgen receptor (Rattus norvegicus, UniProt P15207)
T4 sequence (P15207 whole entry): T3 sequence (whole entry)
Experiment: as §1
Conditions: not given

Row | Structure (SMILES) | IC50 [µM]
21 | C[C@@H]1CC2=CC(=O)CC[C@@H]2[C@H]2CC[C@@]3(C)[C@@H](CC[C@]3(C)O)[C@@H]21 [MIBOLERONE] | 0.001

Test system: Syrian golden hamster
Experiment: Hyperplasia activity in castrated golden hamster assessed as seminal vesicles weight at 2 mg/kg, sc co-administered with testosterone for 6 days (reference value: 200.6 +/- 55 mg)
Assay type: functional, Mesocricetus auratus
Conditions: not given

Row | Structure (SMILES) | Activity [mg]
22 | CCC(=O)O[C@H]1CC[C@@]2(C)C(=CC[C@@H]3[C@@H]2CC[C@]2(C)C(C(=O)Cn4ccnc4)=CC[C@@H]32)C1 | 231.7

Test system: Syrian golden hamster
Experiment: Hyperplasia activity in castrated golden hamster assessed as diameter of pigmented spot of flank organs at 2 mg/kg, sc administered for 6 days (reference value: 5.65 +/- 1.12 mm)
Assay type: functional, Mesocricetus auratus
Conditions: not given

Row | Structure (SMILES) | Activity [mm]
23 | CCC(=O)O[C@H]1CC[C@@]2(C)C(=CC[C@@H]3[C@@H]2CC[C@]2(C)C(C(=O)Cn4ccnc4)=CC[C@@H]32)C1 | 1.8
